Molecular target: RNA-binding domain (RBD) of the SARS-CoV-2 nucleocapsid (N) protein, RBD (44–180) (Severe acute respiratory syndrome coronavirus 2, UniProt P0DTC9)
Assay: biochemical

Nc1ncnc2c1ncn2[C@@H]1O[C@H](COP(=O)(O)OP(=O)(O)OP(=O)(O)O)[C@@H](O)[C@H]1O [ATP]
Kd: 3.3 ± 0.4 mM

Reference: paper PMC7808732 (Biochemical and Biophysical Research Communications, 2021)
